Experimental data reported in ChEMBL document CHEMBL1136608, “Azaindoles: moderately basic P1 groups for enhancing the selectivity of thrombin inhibitors” (Bioorg Med Chem Lett, 2003).

How the values were obtained:
[1] = target: Serine protease 1 (Homo sapiens, UniProt P07477); experiment: Inhibition of Trypsin
[2] = Cmax in dog after oral administration at 1 mg/kg; format: ADME, organism-based, Canis lupus familiaris; parameters: dose 1 mg/kg, route oral; conditions: in vivo
[3] = organism: Homo sapiens; experiment: In vitro concentration required to double the human activated partial thromboplastin time (2x APTT); format: functional
[4] = Area under curve was determined in dog after oral administration at 1 mg/kg; format: ADME, organism-based, Canis lupus familiaris; parameters: dose 1 mg/kg, route oral; conditions: in vivo
[5] = Half-life in dog after oral administration at 1 mg/kg; format: ADME, organism-based, Canis lupus familiaris; parameters: dose 1 mg/kg, route oral; conditions: in vivo
[6] = target: Prothrombin (Homo sapiens, UniProt P00734); experiment: Inhibition of Thrombin
[7] = test system: Canis familiaris; experiment: Cmax in dog after oral administration at 1 mg/kg; Below the level of quantitation; format: ADME, organism-based, Canis lupus familiaris; parameters: dose 1 mg/kg, route oral; conditions: in vivo

Sequence of Serine protease 1 (P07477 whole entry): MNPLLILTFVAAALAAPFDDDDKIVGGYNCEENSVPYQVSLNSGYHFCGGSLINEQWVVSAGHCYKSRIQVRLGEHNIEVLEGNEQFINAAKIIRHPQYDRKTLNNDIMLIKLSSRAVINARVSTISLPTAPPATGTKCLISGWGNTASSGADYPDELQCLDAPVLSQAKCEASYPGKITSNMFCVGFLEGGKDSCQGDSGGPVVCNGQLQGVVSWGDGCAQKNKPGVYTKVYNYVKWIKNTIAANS

Ki [1]	Compound	Concentration [3]	further results
> 100 µM	Cc1cnc(NCCc2ccccc2)c(=O)n1CC(=O)NCc1ccc2[nH]ccc2n1	–	–
95 µM	Cc1cnc(NCCc2ccccc2)c(=O)n1CC(=O)NCc1cc2cc[nH]c2cn1	2.63 µM	Cmax [2]: 2690 nM; half-life [5]: 3.6 h; AUC [4]: 15.2 µM·h
2 µM	Cc1cnc(NCCc2ccccc2)c(=O)n1CC(=O)NCc1ccc2[nH]cnc2c1	–	–
> 100 µM	Cc1cnc(NCCc2ccccc2)c(=O)n1CC(=O)NCc1ccc2[nH]ccc2c1	–	–
> 1000 µM	Cc1cnc(NCCc2ccccn2)c(=O)n1CC(=O)NCc1ccc2[nH]ccc2n1	0.8 µM	Cmax [7]: Below the level of quantitation
> 100 µM	Cc1cnc(NCCc2ccccc2)c(=O)n1CC(=O)NCc1ccc2cc[nH]c2c1	–	Ki [6]: 0.83 µM

The next lines start with the compound.

Compound	Ki [1]	Concentration [3]	further results
Cc1cnc(NCCc2ccccn2)c(=O)n1CC(=O)NCc1cc2cc[nH]c2cn1	200 µM	0.4 µM	Cmax [2]: 180 nM; AUC [4]: 0.17 µM·h
Cc1cnc(NCCc2ccccc2)c(=O)n1CC(=O)NCc1ccc2nccn2c1C	6.8 µM	–	–
Cc1cnc(NCCc2ccccn2)c(=O)n1CC(=O)NCc1cnc2[nH]ccc2c1	140 µM	–	Ki [6]: 0.0066 µM; Cmax [2]: 2100 nM; half-life [5]: 2.42 h; AUC [4]: 9.1 µM·h
Cc1nc(N)ccc1CNC(=O)Cn1c(C)cnc(NCCc2ccccc2)c1=O [L-375378]	–	0.41 µM	Cmax [2]: 5370 nM; half-life [5]: 3.18 h; AUC [4]: 23.1 µM·h
Cc1cnc(NCCc2ccccn2)c(=O)n1CC(=O)NCc1ccc2[nH]ccc2c1	290 µM	–	–
Cc1cnc(NCCc2ccccc2)c(=O)n1CC(=O)NCc1cnc2[nH]ccc2c1	> 100 µM	–	–
Cc1cnc(NCCc2ccccc2)c(=O)n1CC(=O)NCc1ccc2nccn2c1	100 µM	–	Ki [6]: 0.14 µM
Cc1cnc(NCCc2ccccn2)c(=O)n1CC(=O)NCc1c[nH]c2nccc-2c1	–	0.95 µM	–
Cc1cnc(NCCc2ccccc2)c(=O)n1CC(=O)NCc1ccn2ccnc2c1	120 µM	–	Ki [6]: 0.27 µM
